Measured values: ChEMBL document CHEMBL1136912, “Synthesis and in vivo influenza virus-inhibitory effect of ester prodrug of 4-guanidino-7-O-methyl-Neu5Ac2en” (Bioorg Med Chem Lett, 2009)

Assay: Inhibition of Tamiflu-resistant Influenza A virus (A/Yokohama/67/2006 (H1N1)) sialidase

Compound: CO[C@@H]([C@@H]1OC(C(=O)O)=C[C@H](NC(=N)N)[C@H]1NC(C)=O)[C@H](O)CO [LANINAMIVIR]
- IC50: 5.62 nM

Compound: CC(=O)N[C@H]1[C@H]([C@H](O)[C@H](O)CO)OC(C(=O)O)=C[C@@H]1NC(=N)N [ZANAMIVIR]
- IC50: 3.05 nM
